Like-named read-outs stand apart in the source and are kept apart here.
Tested on: Hydractinia echinata
Experiment: Hydractinia echinata test system (HeTS): reduction of Cs+-induced metamorphosis of larvae
Assay type: in vivo
Settings: for EC50: Hydractinia echinata
Experimental: The average (C) concentrations of these values were calculated too. The MRC50 value calculations (Chicu et al.) result from the graphical representation of the metamorphosis variation, M (%), (Y axis) function of the xenobiotic’s concentration (mol/L) (X axis), where the metamorphosis decreases with the rise of the xenobiotic’s concentration. Thus, the MRC50 value represents the xenobiotic’s concentration (mol/L) necessary for a 50% decrease of metamorphosis, with respect to control.
For each concentration of substance experiments were performed in triplicate and were repeated at least twice.
Colonies of H. echinata (Biologische Anstalt, Helgoland, Germany) were used to obtain eggs and larvae. The culture medium was artificial seawater (980 mosmol, pH 8.2, 18 °C). In laboratory an artificial metamorphosis can be synchronically started by the introduction of Cs^+ ions or by using seawater without Mg^2+ ions; it then lasts only 24 h. Under the action of external stimulus of Cs^+ ions or Cs^+ ions together with the tested compounds, one part of larvae further lives as such and another one is metamorphosized to the polyp form. The evaluation of the influence of the tested substance is very clear this way, the proposed method being based on this aspect.
H. echinata larvae were exposed to seawater containing Cs^+ and simultaneously one of the test substances for 3 h. The percentage of animals that underwent metamorphosis (development into polyps) was determined after 24 h. […] We chose a concentration of inducers which caused about […] to three quarters of the larvae to metamorphose in order to have conditions which are highly sensitive against an inhibitory influence. […] This concentration was termed MRC50 (for Metamorphosis Reduction Concentration) and is similar to the effective EC50 concentration that gives half maximal effective response.

[1] = product of enzymatic reduction/hydrolysis of the dye
[2] = product of enzymatic reduction/hydrolysis of the dye, read-out: F(1), F(2),... individual log(1/MRC50) toxicity value (converted)
[3] = MRC50 in mol/L = concentration for 50% decrease of metamorphosis vs control, larvae exposed 3 h with Cs+, read after 24 h, read-out: M: experimental Mlog(1/MRC50) (converted)
[4] = parent dye, Table 2, read-out: F(1+2+...)e experimental toxicity log(1/MRC50) (converted)
[5] = MRC50 in mol/L = concentration for 50% decrease of metamorphosis vs control, larvae exposed 3 h with Cs+, read after 24 h

With 2-Aminocresol the “F(1), F(2),... individual log(1/MRC50) toxicity value” [1] was 3.21.
For `Nc1ccc(O)cc1O` [2,4-DHA, 2,4-dihydroxyaniline], the EC50 [2] was 0.55 µM.
For `Nc1ccc(/C=C/c2ccc(N)cc2S(=O)(=O)O)c(S(=O)(=O)O)c1` [ADASDS, diaminostilbene disulfonic acid], the “F(1), F(2),... individual log(1/MRC50) toxicity value” [1] was 3.43.
`Nc1ccc(C(=O)O)cc1` [APAB, p-aminobenzoic acid] showed an EC50 [2] of 457 µM.
In the case of `Nc1ccc(S(=O)(=O)O)cc1` [APABS, p-aminobenzenesulfonic acid], the “F(1), F(2),... individual log(1/MRC50) toxicity value” [1] is reported as 2.81.
`Nc1ccc(C(=O)O)c(O)c1` [Ac p-AmS, p-aminosalicylic acid] gave an EC50 (read-out: F(1), F(2),... individual log(1/MRC50) toxicity value (converted)) of 1070 µM.
With `COc1ccc(N=Nc2ccccc2)cc1` [Compound 1, (4-Methoxyphenyl) (phenyl)diazene] the EC50 [3] was 6.31 µM and the EC50 [4] was 6.31 µM.
`O=C(O)c1ccc(N=Nc2ccccc2)cc1` [Compound 2, 4-(2-Phenyldiazen-1-yl)benzoic acid] was tested, and the EC50 [3] was 214 µM and the EC50 [4] was 214 µM.
Compound `CN(C)c1ccc(/N=N/c2ccccc2C(=O)O)cc1` [Compound 3, Methyl Red] has an EC50 [3] of 209 µM.
For `CN(C)c1ccc(N=Nc2ccccc2C(=O)[O-])cc1.[Na+]` [Compound 4, Methyl Red (sodium salt)], the “M: experimental Mlog(1/MRC50)” value [5] was 3.79.
Compound `Nc1ccc(/N=N/c2ccccc2C(=O)O)cc1C(=O)O` [Compound 5, 2-Amino-5-[(E)-2-(2-carboxyphenyl)diazen-1-yl]benzoic acid] has an EC50 [3] of 26.3 µM.
Work on `CCN(CC)c1ccc(N=Nc2ccc(C(=O)O)cc2)cc1` [Compound 6, 4-{2-[4-(Diethylamino)phenyl]diazen-1-yl}benzoic acid] yielded an EC50 [3] of 17 µM.
Compound `O=C(O)c1ccc(N=Nc2ccc(O)cc2)cc1` [Compound 7, 4-[2-(4-Hydroxyphenyl)diazen-1-yl]benzoic acid] has an EC50 [3] of 479 µM and an EC50 [4] of 479 µM.
`O=C(O)c1ccc(/N=N/c2ccc(O)cc2O)cc1` [Compound 8, 4-[(E)-2-(2,4-dihydroxy-phenyl)diazen-1-yl]benzoic acid] gave an EC50 [3] of 490 µM and an EC50 [4] of 490 µM.
For `O=C(O)c1ccc(N=Nc2ccc(O)c(C(=O)O)c2)cc1` [Compound 9, 5-[2-(4-Carboxyphenyl)diazen-1-yl]-2-hydroxybenzoic acid], the EC50 [3] was 447 µM and the EC50 [4] was 447 µM.
`O=S(=O)([O-])c1cccc(N=Nc2ccc(Nc3ccccc3)cc2)c1.[Na+]` [Compound 12, Metanil Yellow (sodium salt)] was tested, and the “M: experimental Mlog(1/MRC50)” value [5] was 4.17.
`CN(C)c1ccc(N=Nc2ccc(S(=O)(=O)[O-])cc2)cc1.[Na+]` [Compound 14, Methyl Orange (Orange III)] was tested, and the “M: experimental Mlog(1/MRC50)” value [5] was 3.74 and the “F(1+2+...)e experimental toxicity log(1/MRC50)” value (parent dye, Table 2) was 3.74.
With `Cc1ccc(N=Nc2ccc([N+](=O)[O-])cc2)c(O)c1` [Compound 20, 5-Methyl-2-[2-(4-nitrophenyl)-diazen-1-yl]phenol] the EC50 [3] was 77.6 µM and the EC50 [4] was 77.6 µM.
`O=S(=O)(O)c1ccc(O)c(/N=N/c2ccc(O)cc2O)c1` [Compound 21, 3-[(E)-2-(2,4-dihydroxyphenyl)-diazen-1-yl]-4-hydroxybenzene-1-sulfonic acid] was tested, and the EC50 [3] was 53.7 µM.
`O=C(O)c1ccc(N=Nc2c(O)ccc3ccccc23)cc1` [Compound 23, 4-[2-(2-Hydroxynaphthalen-1-yl)diazen-1-yl]benzoic acid] showed an EC50 [3] of 245 µM.
`O=C(O)c1ccc(N=Nc2c(O)c(C(=O)O)cc3ccccc23)cc1` [Compound 25, 4-[2-(4-Carboxyphenyl)diazen-1-yl]-3-hydroxynaphthalene-2-carboxylic acid] was tested, and the EC50 [3] was 355 µM.
`Nc1c(N=Nc2ccc(C(=O)O)cc2)ccc2ccccc12` [Compound 26, 4-[2-(1-Aminonaphthalen-2-yl)diazen-1-yl]benzoic acid] gave an EC50 [3] of 18.6 µM.
In the case of `O=S(=O)([O-])c1ccc(N=Nc2c(O)ccc3ccccc23)cc1.[Na+]` [Compound 28, Acid Orange 7], the “M: experimental Mlog(1/MRC50)” value [5] is reported as 3.17.
In the case of `Cc1ccc(N=Nc2c(O)c(S(=O)(=O)[O-])cc3cc(S(=O)(=O)[O-])ccc23)c(C)c1.[Na+].[Na+]` [Compound 38, Acid Red 26 (Ponceau Xilidine)], the “M: experimental Mlog(1/MRC50)” value [5] is reported as 4.06.
